These results are taken from patent US20240374535A1, “COMPOSITIONS AND METHODS FOR TREATING BIOFILM DISORDERS AND INFECTIONS” (AHV International B.V., priority 2021, published 2024).

Test [1] has as its system Pseudomonas aeruginosa ATCC 27853 biofilm. The test can be described thus: MBIC assay (biofilm inhibition, crystal violet). The format is cell-based, P. aeruginosa. To be noted: 48 h incubation, absorbance 540 nm. As to the method: The exact weighed amount was noted and the volume of solvent to reach a 80 mM dilution calculated. Half of the volume was added first, by adding Tween 80. In a second step, the other half of the volume DMSO was added and the closed tube inverted 5-10 times and then vortexed very thoroughly for at least 30 seconds. If after this procedure unsolved material was still visible, the tube was placed in a shaker at 37° C. at 150 rpm for at least 30 minutes. […] For the MBEC assay (method 1.3) the solution needs to be diluted to a final concentration of 2 mM in 0.9% saline solution and then further diluted to 1 mM, 0.5 mM, 0.25 mM and 0.125 mM in saline. Those dilutions were added as treatment to the 96 well plates with the grown biofilm (see method 3).
Frozen aliquots of Staphylococcus epidermis ATCC 35984 and Pseudomonas aeruginosa ATCC 27853 were used to inoculate a tryptic soy agar (TSA) plate and were incubated overnight at 37° C. After incubation 3-5 well-isolated colonies with the same morphology were selected from the TSA plate and resuspended in 2 mL 0.9% saline solution with 3-6 glass beads and vortexed. The optical density of the bacterial suspension was measured at 600 nm (OD600) with a spectrophotometer (Evolution™ 201/220 UV-Visible Spectrophotometer, Thermo Fisher Scientific) and diluted to an OD600 of 0.2. The MBIC assay was performed in a 96-microtiter plate. 50 μL of TSB was added into columns 2-11, and 100 μL to column 12 for sterility control. 100 μL of the 8 mM test compound solution (method 1) was added to column 1. A two-fold dilution series of the solution in TSB was achieved by resuspending 50 μL of the 8 mM solution from column 1 in column 2. This step was repeated until column 10. The respective concentration of Tween 80 and DMSO in column 1 is at 2.5%, which is two-fold diluted throughout the plate. 50 μL of the bacterial suspension was added to column 1-11. The microtiter plates were sealed with adhesive polyethylene film for sealing microplates (Diversified Biotech) and incubated for 48 h at 37° C. After incubation the supernatant is carefully removed and the well with the biofilm washed for one time with 100 μL 0.9% saline solution. 100 μL 0.1 M HCl was added and incubated for 1 h at room temperature to fix the biofilm. After incubation the HCl was removed and 100 μL crystal violet (0.1% v/v in water) was added and incubated for 30 min at room temperature. The unbound crystal violet was removed and the wells washed one time with 100 μL demineralized water. 100 μL 30% acetic acid was added and incubated for 1 h at 37° C. and 150 rpm. The solution was resuspended and transferred to a flat-bottom 96-well plate and the absorbance measured at 540 nm with the spectrophotometer. This assay was repeated two times in two independent experiments.

The next test concerns udder cleft wound. The test is described as follows: In vivo udder cleft dermatitis test: wound assessment after spray treatment. Conditions: for inflammation of the udder cleft wound after treatment: immediately after the treatment, later infection reduced and wound healed; for Conclusion (effect on udder cleft wound): over 60 days, all cows of the group. Set-up: species or system cow.

The subject of test [2] is Staphylococcus epidermis ATCC 35984 biofilm. The test can be described thus: MBEC assay (biofilm eradication, CFU log reduction). To be noted: 48 h grown biofilm, 20 h treatment, CFU log reduction vs untreated. The test is classed as cell-based, S. epidermidis. In outline:
(§1)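 Biofilms were grown 48 h static at 37 °C in TSB from inocula at OD600 0.2, then treated 20 h at 37 °C with 1, 0.5, 0.25 or 0.125 mM compound in saline (Tween 80 and DMSO each 0.63–0.08%), four replicates per condition. Resuspended biofilm was serially diluted and plated on TSA for 24 h; log CFU reduction versus untreated, with ≥1 counted as significant, in two independent experiments.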

For test [3], the system named is Pseudomonas aeruginosa ATCC 27853 biofilm. The description is as above. The test is classed as cell-based, P. aeruginosa. To be noted: 48 h grown biofilm, 20 h treatment, CFU log reduction vs untreated. In outline: as §1

For the compound `CCCS[S+]([O-])CCC` (stereo not shown) [Di-n-propyl thiosulfinate, S-propyl propane-1-sulfinothioate], in test [1], the “P. aeruginosa MBIC90” value turned out to be 2 mM. Further, in the test with udder cleft wound, the “inflammation of the udder cleft wound after treatment” value was “fast inflammation reduction” and the “Conclusion (effect on udder cleft wound)” value is given as “Positive effect”. The minimal effective concentration in test [2] (read-out: S. epidermidis MBEC mM with log reduction ≥1) amounted to 2 mM. For the same compound, the minimal effective concentration in test [3] (Pseudomonas aeruginosa, ATCC27853, read-out: P. aeruginosa MBEC mM with log reduction ≥1) stood at 4 mM.
Regarding `CSS(C)(=O)=O` [Di-methyl thiosulfonate, methyl methane thiosulfonate], in test [1], the “P. aeruginosa MBIC90” value was found to be 4 mM. Further, in the test on udder cleft wound, the “inflammation of the udder cleft wound after treatment” value was “fast inflammation reduction” and the “Conclusion (effect on udder cleft wound)” value is listed as “Positive effect”. Moreover, the “S. epidermidis MBEC mM with log reduction ≥1” value in test [2] is recorded as 2 mM. In addition, the “P. aeruginosa MBEC mM with log reduction ≥1” value in test [3] turned out to be 2 mM.
